Measurements: US20250241901A1, “ACTIVATION OF MNRR1 / CHCHD2 AS A THERAPEUTIC TARGET FOR MITOCHONDRIA ASSOCIATED DISORDERS” (Wayne State University, priority 2024, published 2025)

Columns and labels:
Format in all cases: cell-based, human
[1] = system: MNRR1; assay: MNRR1 transcript levels in MELAS cells (RT-PCR); settings: relative to 18S rRNA
Method: FIGS. 6A-6C: FIG. 6A: Above, Chemical structures of nitazoxanide, its metabolites, and similar compounds. Abbreviations: P4, Phenyl-4-aminosalicylic acid; 4ABA, 4-Aminobenzanilide; 4ASA, 4-Amino salicylic acid; BA, Benzanilide; PBO, Phenyl benzoate; PSA, Phenyl salicylic acid; 2AN, 2-Amino 5-nitrothiazole. Below, Equal amounts of lysates of MELAS cells treated with Vehicle (DMSO) or the various compounds (10 μM) for 24 h were separated on an SDS-PAGE gel and probed for MNRR1 levels. Actin was probed as a loading control and numbers below represent an average and SD of 3 biological replicates. FIGS. 6B-6C: MNRR1 transcript levels are shown relative to 18S rRNA (n=4 biological replicates, error bars represent SE). In all figures, * indicates p<0.05, ** indicates p<0.005.
Real-time polymerase chain reaction (RT-PCR): Total cellular RNA was extracted from MELAS cells with a RNeasy Plus Mini Kit (Qiagen) according to the manufacturer's instructions. Complementary DNA (cDNA) was generated by reverse transcriptase polymerase chain reaction (PCR) using the ProtoScript® II First Strand cDNA Synthesis Kit (New England Biolabs, Ipswich, MA). Transcript levels were measured by real time PCR using SYBR green on an ABI 7500 system. Real-time analysis was performed by the ΔΔ^Ct method. […]

[2] = system: MNRR1 promoter; assay: Dual luciferase reporter assay with MNRR1 promoter deletions in MELAS cybrid cells; settings: 10 μM, 24 h
Method: FIGS. 9A-9E: Nitazoxanide acts by reducing HIF2α levels in MELAS cells. FIG. 9A: Schematic representation of deleted regions of the MNRR1 promoter. FIG. 9B: Dual luciferase reporter assay using the MNRR1 promoter deletions in cells treated with vehicle (DMSO), nitazoxanide, or tizoxanide (10 μM) for 24 h (n=4 biological replicates). FIG. 9C: DNA sequence of region of 800-952 bp in the MNRR1 promoter (SEQ ID NO: 25) highlighting binding sites of the transcription factors shown. FIG. 9D: Transcript levels of HIF2α and HIF1α in MELAS cybrid cells harboring different levels of heteroplasmy (0% to 100%). Data from. FIG. 9E: Protein levels of HIF2α and HIF1α in cybrid cells with 0% (CL9) and 70% MELAS heteroplasmy (DW7) In all figures, * indicates p<0.05, ** indicates p<0.005.
Luciferase reporter assay: Luciferase assays were performed with the dual-luciferase reporter assay kit (Promega). Briefly, cells were lysed in 1× passive lysis buffer (Promega) and 25 μL of lysate was used for assay with a tube luminometer using an integration time of 10 s. Transfection efficiency was normalized with the co-transfected pRL-SV40 Renilla luciferase expression plasmid.

[3] = system: HIF2α; assay: HIF2α protein levels in MELAS cybrid cells (immunoblot)
Method: FIGS. 10A-10E: The reduction of MNRR1 in MELAS cells is via HIF2α acting at the ORE and not the HRE. FIG. 10A: Above, Equal amounts of MELAS cell lysates, treated with vehicle (DMSO) or increasing amounts of tizoxanide (2.5 to 40 μM) for 24 h, were separated on an SDS-PAGE gel and probed for HIF2α, MNRR1, and Tubulin. Below, Protein quantification for MNRR1 and HIF2α relative to Tubulin. FIG. 10B: Dual luciferase reporter assay showing relative activation of MNRR1-luciferase in MELAS cybrid cells overexpressing WT (FIG. 9A), Δ 801-952 (FIG. 9A), ΔORE (positions 47-53 of SEQ ID NO: 25 in FIG. 9C) or ΔHRE (positions 59-66 of SEQ ID NO: 25 in FIG. 9C). FIG. 10C: Dual luciferase reporter assay showing relative activation of HRE-luciferase levels in cybrid cells with 0% (CL9) and 70% MELAS heteroplasmy (DW7). […]
Immunoblotting: Immunoblotting was performed as described previously. […] The clear supernatants were transferred to new tubes and quantified using the Bradford reagent with BSA as standard (BioRad, Hercules. CA). […] For detection after immunoblotting, the SuperSignal™ West Pico PLUS substrate (ThermoFisher, Waltham, MA) was used to generate chemiluminescence signal, which was detected with X-Ray film (RadTech, Vassar, MI).

[4] = system: HIF2α; assay: HIF2α transcript levels (RT-PCR); settings: 18S rRNA as housekeeper
From the text: FIG. 13: RT-PCR for measuring HIF2α levels. 18S rRNA was used as housekeeper for both analyses (n=3 biological replicates).
Real-time polymerase chain reaction (RT-PCR): Total cellular RNA was extracted from MELAS cells with a RNeasy Plus Mini Kit (Qiagen) according to the manufacturer's instructions. Complementary DNA (cDNA) was generated by reverse transcriptase polymerase chain reaction (PCR) using the ProtoScript® II First Strand cDNA Synthesis Kit (New England Biolabs, Ipswich, MA). Transcript levels were measured by real time PCR using SYBR green on an ABI 7500 system. Real-time analysis was performed by the ΔΔ^Ct method. The primers used were MNRR1 forward: 5′-[…]-3′ (SEQ ID NO: 9), reverse: 5′-[…]-3′ (SEQ ID NO: 10); 18s forward: 5′-[…]-3′ (SEQ ID NO: 11), reverse: 5′-[…]-3′ (SEQ ID NO: 12), PHD1(EGLN2) forward: 5′-[…]-3′ (SEQ ID NO: 13), reverse: 3′-TCCTTGGCATCAAAATACC-5′ [32](SEQ ID NO: 14); PHD3(EGLN3) forward 5′-[…]-3′ (SEQ ID NO: 15), reverse: 3′-ATGCAGGTGATGCAGCGA-5′ [33](SEQ ID NO: 16) and HIF2α (EPAS1) forward: 5′-[…]-3′ (SEQ ID NO: 17), reverse: 3′-[…]-5′ (SEQ ID NO: 18).

Row | SMILES | MNRR1 transcription [1] | activation of MNRR1 promoter with deletion of the 801-952 region [2] | HIF2α protein levels relative to MNRR1 ([3]; MELAS cybrid cells, 2.5 to 40 μM, 24 h) | HIF2α transcript levels [4] | levels of HIF2α ([3]; MELAS cells)
1 | O=C(Nc1ncc([N+](=O)[O-])s1)c1ccccc1O [tizoxanide, Tizoxanide] | induced its transcription | failed to display activation | inversely proportional in a concentration dependent manner to MNRR1 | absence of any change | 
2 | CC(=O)Oc1ccccc1C(=O)Nc1ncc([N+](=O)[O-])s1 [nitazoxanide, Nitazoxanide] | induced its transcription | failed to display activation |  | absence of any change | reduces
